{"source": "PubChem BioAssay AID1918949", "about": "(Molecular Pharmacology Branch, DTP, NCI, 2023)", "tested_on": "K24384-001-R-PDC complex spheroid viability", "assay": "Anticancer human tumor K24384-001-R-PDC patient-derived pancreatic adenocarcinoma cell line growth inhibition", "details": "for viability, T/C: stronger effect = lower value; for IC50: curve of compound", "source_text": "Multicellular complex tumor spheroid response to LSD1 Inhibitor Iadademstat in combination with a variety of drugs and investigational agents in selected tumor cell lines\nThe current study was undertaken to assess response to LSD1 inhibitors in combination with standard-of-care drugs and investigational agents in solid tumor complex spheroid models as well as in the K-562 leukemia. Complex spheroids include a stromal component modeled by human endothelial cells (HUVEC) and fibroblasts modeled by human mesenchymal stem cells (MSCs). The concentration ranges selected for each drug and investigational agent were based upon clinically achievable concentrations if the clinical Cmax of the agent was known.\nCompounds. The drugs and investigational agents used in this study are listed on Table 1. All of the agents used, including staurosporine (NSC755774) and gemcitabine (NSC613327), were obtained from the Developmental Therapeutics Program, NCI. FDA-approved anticancer drugs are available from the NCI at http://dtp.nci.nih.gov/branches/dscb/oncology_drugset_explanation.html. Drugs and investigational agents were >95% pure by proton nuclear magnetic resonance (NMR) and liquid chromatography/mass spectrometry (LC/MS). Stock solutions were prepared at 400x in DMSO, stored at -70 degrees C, and diluted in fresh medium prior to their use. The final concentration of DMSO in cell culture wells never exceeded 0.25% (v/v). The FDA-approved anticancer drug set is available from the Developmental Therapeutics Program at https://dtp.cancer.gov/organization/dscb/obtaining/available_plates.htm. All drugs and investigational agents were tested over a range starting from a high concentration at or near the clinical Cmax and decreasing in half-log increments. If the clinical Cmax for an agent had not been determined, the highest concentration tested was 10 microM.\nCell Lines. The patient-derived cancer cell (PDC) lines: 292921-168-R-J2-PDC, K24384-001-R-PDC, and 521955-158-R2-J5-PDC pancreatic carcinomas, 556581-035-R-J1 ovarian carcinoma, 324938-238-R-J1-PDC, 855422-203-R-J1-PDC and 883617-216-R-J1-PDC urothelial bladder carcinomas, 743489-274-T-PDC renal cell carcinoma, 138582-R-J1 Merkel cell tumor, K60290-347-R-J1 and K57222-313-R-J1-PDC glioblastomas, 653999-131-R-J2-PDC, LG0703-F948-PDC, and 349418-098-R-PDC non-small cell lung carcinomas, 885512-296-R-J2-PDC, 171881-019-R-J1-PDC breast carcinomas and 186277-243-T-J2-PDC and 233499-124-R-J2-PDC colon carcinomas were obtained from the NCI Patient-Derived Models Repository (PDMR, https://pdmr.cancer.gov). The established cell lines NCI/ADR-RES (RRID:CVCL_14520 and OVCAR-5 (RRID:CVCL_1628) ovarian carcinomas, 786-O (RRID:CVCL_1051) and A498 (RRID:CVCL_A498) renal cell carcinoma, NCI-H211 (ATCC, cat. CRL-5824; RRID:CVCL_1529), NCI-H196 (ATCC, cat. CRL-5823, RRID:CVCL_1509), SW 1271 (ATCC, cat. CRL-2177, RRID:CVCL_1716) and NCI-H1876 (ATCC, cat. CRL-5902, RRID:CVCL_1503) small cell lung carcinomas, MDA-MB-231 (RRID:CVCL_0062) and MDA-MB-468 (RRID:CVCL_0419)breast carcinomas (10-12). Pooled donor human umbilical vein endothelial cells (HUVEC, Lonza, cat. CC-2519) and human mesenchymal stem cells (hMSC, Lonza, cat. PT-2501) were purchased from Lonza (Walkersville, MD).\nCell Culture. All cells were maintained in an incubator at 37 degrees C and 5% CO2 with 95% humidity. The PDC lines were cultured according to standard operating procedures established by the NCI PDMR (https://pdmr.cancer.gov). Briefly all PDCs were thawed and cultured in Matrigel-coated flasks prepared with a working solution of 1X Ham's F-12 nutrient mix, without supplementation (Invitrogen, Waltham, MA, cat. 11765054), 100 U/mL penicillin-streptomycin (Invitrogen, cat. 15140122), and 2.5% Matrigel (Corning Inc., Corning, NY, cat. 354248) for the first three passages. […]", "note": "“And” between values parts separate entries of the source, which are not always exact repeats. Equal values may be shown once.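 Also: spheroids exposed to agents for seven days before luminescence viability reading.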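 For viability, T/C in this document: 100% = DMSO vehicle control viability.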"}
{"smiles": "CC(C)CC(NC(=O)C(Cc1ccccc1)NC(=O)c1cnccn1)B(O)O", "note": "(configuration not stated)", "values": [{"measurement": "viability, T/C", "setting": "compound 0.000316 µM", "value": "81.2% and 95.6%"}, {"measurement": "viability, T/C", "setting": "compound 0.001 µM", "value": "1.67% and 1.46%"}, {"measurement": "viability, T/C", "setting": "compound 0.00316 µM", "value": "0.39% and 0.47%"}, {"measurement": "viability, T/C", "setting": "compound 0.01 µM", "value": 0.38, "unit": "%"}, {"measurement": "viability, T/C", "setting": "compound 0.0316 µM", "value": "0.34% and 0.41%"}, {"measurement": "viability, T/C", "setting": "compound 0.1 µM", "value": "0.36% and 0.35%"}, {"measurement": "IC50", "value": "0.497 nM and 0.552 nM"}]}
{"smiles": "CC(C)CC(NC(=O)CNC(=O)c1cc(Cl)ccc1Cl)B1OC(=O)CC(CC(=O)O)(C(=O)O)O1", "note": "(configuration not stated)", "values": [{"measurement": "viability, T/C", "setting": "compound 0.000316 µM", "value": "100% and 107%"}, {"measurement": "viability, T/C", "setting": "compound 0.001 µM", "value": "103% and 86.3%"}, {"measurement": "viability, T/C", "setting": "compound 0.00316 µM", "value": "91.3% and 79.2%"}, {"measurement": "viability, T/C", "setting": "compound 0.01 µM", "value": "42.1% and 59.8%"}, {"measurement": "viability, T/C", "setting": "compound 0.0316 µM", "value": "4.17% and 4.53%"}, {"measurement": "viability, T/C", "setting": "compound 0.1 µM", "value": "0.95% and 1.47%"}, {"measurement": "IC50", "value": "8.28 nM and 11.1 nM"}]}
{"smiles": "CC(C)c1c(-c2ccccc2)nc2c(C#N)c[nH]n2c1=O", "values": [{"measurement": "viability, T/C", "setting": "compound 0.0316 µM", "value": "89.9% and 82.5%"}, {"measurement": "viability, T/C", "setting": "compound 0.1 µM", "value": "88.6% and 104%"}, {"measurement": "viability, T/C", "setting": "compound 0.316 µM", "value": "96.9% and 93.2%"}, {"measurement": "viability, T/C", "setting": "compound 1 µM", "value": "94.9% and 81.5%"}, {"measurement": "viability, T/C", "setting": "compound 3.16 µM", "value": "97.4% and 69.9%"}, {"measurement": "viability, T/C", "setting": "compound 10 µM", "value": "104% and 91.6%"}, {"measurement": "IC50", "value": "> 10000", "unit": "nM"}]}
{"smiles": "CC1(C)CCC(CN2CCN(c3ccc(C(=O)NS(=O)(=O)c4ccc(NCC5CCOCC5)c([N+](=O)[O-])c4)c(Oc4cnc5[nH]ccc5c4)c3)CC2)=C(c2ccc(Cl)cc2)C1", "values": [{"measurement": "viability, T/C", "setting": "compound 0.0316 µM", "value": "95.9% and 81.9%"}, {"measurement": "viability, T/C", "setting": "compound 0.1 µM", "value": "97.3% and 90.8%"}, {"measurement": "viability, T/C", "setting": "compound 0.316 µM", "value": "96.5% and 92.7%"}, {"measurement": "viability, T/C", "setting": "compound 1 µM", "value": "106% and 78.1%"}, {"measurement": "viability, T/C", "setting": "compound 3.16 µM", "value": "63.5% and 67.6%"}, {"measurement": "viability, T/C", "setting": "compound 10 µM", "value": "0.81% and 1.22%"}, {"measurement": "IC50", "value": "4050 nM and 4230 nM"}]}
{"smiles": "CC1COCCN1c1cc(-c2ccnn2C)c2ccnc(-c3ccn[nH]3)c2n1", "note": "(configuration not stated)", "values": [{"measurement": "viability, T/C", "setting": "compound 0.00316 µM", "value": "64.7% and 53.9%"}, {"measurement": "viability, T/C", "setting": "compound 0.01 µM", "value": "56.8% and 55.5%"}, {"measurement": "viability, T/C", "setting": "compound 0.0316 µM", "value": "47.3% and 37.6%"}, {"measurement": "viability, T/C", "setting": "compound 0.1 µM", "value": "46.8% and 42.9%"}, {"measurement": "viability, T/C", "setting": "compound 0.316 µM", "value": "49.4% and 44.7%"}, {"measurement": "viability, T/C", "setting": "compound 1 µM", "value": "38.1% and 38.2%"}, {"measurement": "IC50", "value": "35.1 nM and 8.59 nM"}]}
{"smiles": "CC1COCCN1c1cc(C2(S(C)(=N)=O)CC2)nc(-c2ccnc3[nH]ccc23)n1", "note": "(configuration not stated)", "values": [{"measurement": "viability, T/C", "setting": "compound 0.0316 µM", "value": "103% and 94.9%"}, {"measurement": "viability, T/C", "setting": "compound 0.1 µM", "value": "97.9% and 102%"}, {"measurement": "viability, T/C", "setting": "compound 0.316 µM", "value": "107% and 81.7%"}, {"measurement": "viability, T/C", "setting": "compound 1 µM", "value": "75.8% and 67.1%"}, {"measurement": "viability, T/C", "setting": "compound 3.16 µM", "value": "45.8% and 42.4%"}, {"measurement": "viability, T/C", "setting": "compound 10 µM", "value": "48.6% and 44.5%"}, {"measurement": "IC50", "value": "2830 nM and 2530 nM"}]}
{"smiles": "CCN(c1cc(-c2ccc(CN3CCOCC3)cc2)cc(C(=O)NCc2c(C)cc(C)[nH]c2=O)c1C)C1CCOCC1", "values": [{"measurement": "viability, T/C", "setting": "compound 0.00949 µM", "value": "114% and 95.8%"}, {"measurement": "viability, T/C", "setting": "compound 0.03 µM", "value": "107% and 113%"}, {"measurement": "viability, T/C", "setting": "compound 0.0949 µM", "value": "117% and 106%"}, {"measurement": "viability, T/C", "setting": "compound 0.3 µM", "value": "96.4% and 99.3%"}, {"measurement": "viability, T/C", "setting": "compound 0.949 µM", "value": "81.8% and 84.4%"}, {"measurement": "viability, T/C", "setting": "compound 3 µM", "value": "63.5% and 72.9%"}, {"measurement": "IC50", "value": "> 3000", "unit": "nM"}]}
{"smiles": "CC[C@@]1(O)C(=O)OCc2c1cc1n(c2=O)Cc2cc3c(CN(C)C)c(O)ccc3nc2-1", "values": [{"measurement": "viability, T/C", "setting": "compound 0.000316 µM", "value": "107% and 94.3%"}, {"measurement": "viability, T/C", "setting": "compound 0.001 µM", "value": "107% and 78.8%"}, {"measurement": "viability, T/C", "setting": "compound 0.00316 µM", "value": "83.1% and 87.1%"}, {"measurement": "viability, T/C", "setting": "compound 0.01 µM", "value": "73% and 57.5%"}, {"measurement": "viability, T/C", "setting": "compound 0.0316 µM", "value": "61.3% and 49.8%"}, {"measurement": "viability, T/C", "setting": "compound 0.1 µM", "value": "49.9% and 42.5%"}, {"measurement": "IC50", "value": "> 100 nM and 21.4 nM"}]}
{"smiles": "CCc1c2c(nc3ccc(O)cc13)-c1cc3c(c(=O)n1C2)COC(=O)[C@]3(O)CC", "values": [{"measurement": "viability, T/C", "setting": "compound 0.000949 µM", "value": "54.8% and 42%"}, {"measurement": "viability, T/C", "setting": "compound 0.003 µM", "value": "49.9% and 39.2%"}, {"measurement": "viability, T/C", "setting": "compound 0.00949 µM", "value": 32.7, "unit": "%"}, {"measurement": "viability, T/C", "setting": "compound 0.03 µM", "value": "9.62% and 11.7%"}, {"measurement": "viability, T/C", "setting": "compound 0.0949 µM", "value": "6.2% and 6.67%"}, {"measurement": "viability, T/C", "setting": "compound 0.3 µM", "value": "5% and 5.21%"}, {"measurement": "IC50", "value": "3.16 nM and < 0.949 nM"}]}
{"smiles": "COc1cc(C2c3cc4c(cc3C(OC3OC5COC(C)OC5C(O)C3O)C3COC(=O)C23)OCO4)cc(OC)c1O", "note": "(configuration not stated)", "values": [{"measurement": "viability, T/C", "setting": "compound 0.00949 µM", "value": "96.2% and 95.2%"}, {"measurement": "viability, T/C", "setting": "compound 0.03 µM", "value": "91.9% and 98.1%"}, {"measurement": "viability, T/C", "setting": "compound 0.0949 µM", "value": "82% and 74.3%"}, {"measurement": "viability, T/C", "setting": "compound 0.3 µM", "value": "62.3% and 52.5%"}, {"measurement": "viability, T/C", "setting": "compound 0.949 µM", "value": "59.8% and 49.5%"}, {"measurement": "viability, T/C", "setting": "compound 3 µM", "value": "42.1% and 33%"}, {"measurement": "IC50", "value": "1590 nM and 461 nM"}]}
{"smiles": "COc1cc(Nc2ncc3c(n2)-c2ccc(Cl)cc2C(c2c(F)cccc2OC)=NC3)ccc1C(=O)O", "values": [{"measurement": "viability, T/C", "setting": "compound 0.00316 µM", "value": "106% and 74.5%"}, {"measurement": "viability, T/C", "setting": "compound 0.01 µM", "value": "94.8% and 78.3%"}, {"measurement": "viability, T/C", "setting": "compound 0.0316 µM", "value": "85.9% and 62.4%"}, {"measurement": "viability, T/C", "setting": "compound 0.1 µM", "value": "69.7% and 63.6%"}, {"measurement": "viability, T/C", "setting": "compound 0.316 µM", "value": "79.4% and 69.7%"}, {"measurement": "viability, T/C", "setting": "compound 1 µM", "value": "87.7% and 70.3%"}, {"measurement": "IC50", "value": "> 1000", "unit": "nM"}]}
